Source: the Kinase Knowledgebase extract (Sharma et al. 2016)

Target: CDK2 (human) (UniProt P24941)
Assay: Enzyme Assay

| Compound | IC50 |
| --- | --- |
| O=C(Nc1cccc(C2=CCNCC2)n1)Nc1csc(-c2ccncc2)n1 | < 500 nM |
| CN1CC=C(c2cccc(NC(=O)Nc3csc(-c4ccccc4)n3)n2)CC1 | < 500 nM |
| CC(C)(C)OC(=O)N1CCC[C@@H]1COc1cccc(NC(=O)Nc2csc(-c3ccncc3)n2)n1 | < 500 nM |
| CCN(CC)C(=O)c1cccc(NC(=O)Nc2csc(-c3ccccc3)n2)n1 | < 500 nM |
| CN1CCC(c2cccc(NC(=O)Nc3csc(-c4ccncc4)n3)n2)CC1 | < 500 nM |
| CN1CC(COc2cccc(NC(=O)Nc3csc(-c4ccccc4)n3)n2)C1 | < 500 nM |
| CC(C)(C)OC(=O)N1CC=C(c2cccc(NC(=O)Nc3csc(-c4ccncc4)n3)n2)CC1 | < 500 nM |
| CC(C)(C)OC(=O)N1CCC(COc2cccc(NC(=O)Nc3csc(-c4ccncc4)n3)n2)CC1 | < 500 nM |
| O=C(Nc1cccc(CN2CCCC2)n1)Nc1csc(-c2ccccc2)n1 | < 500 nM |
| CC(C)N(Cc1cccc(NC(=O)Nc2csc(Cl)n2)n1)C(=O)OC(C)(C)C | < 500 nM |
| CCN(CC)C(=O)c1ccnc(NC(=O)Nc2csc(-c3ccncc3)n2)c1 | < 500 nM |
| O=C(Nc1cccc(OCC2CCOC2)n1)Nc1csc(-c2ccncc2)n1 (centres undefined) | < 500 nM |
| O=C(Nc1cccc(OCCC2CCNCC2)n1)Nc1csc(C2CC2)n1 | < 500 nM |
| CC(C)(C)OC(=O)N1CCC(CCOc2cccc(NC(=O)Nc3csc(-c4ccccc4)n3)n2)CC1 | < 500 nM |
| CN1CCC[C@H]1COc1cccc(NC(=O)Nc2csc(-c3ccccc3)n2)n1 | < 500 nM |
| CN1CCC[C@H]1COc1cccc(NC(=O)Nc2csc(-c3cccc(S(N)(=O)=O)c3)n2)n1 | < 500 nM |
| O=C(Nc1cccc(OCCC2CCNCC2)n1)Nc1csc(-c2ccccc2)n1 | < 500 nM |
| CC(C)N(Cc1cccc(NC(=O)Nc2csc(Br)n2)n1)C(=O)OC(C)(C)C | < 500 nM |

| Compound | IC50 |
| --- | --- |
| O=C(Nc1cccc(N2CCN(c3ncccn3)CC2)n1)Nc1csc(-c2ccccc2)n1 | < 500 nM |
| CN1CC=C(c2cccc(NC(=O)Nc3csc(-c4ccncc4)n3)n2)CC1 | < 500 nM |
| O=C(Nc1cccc(CN2CCCCC2)n1)Nc1csc(Cl)n1 | < 500 nM |
| C[C@@H]1CCCN(Cc2cccc(NC(=O)Nc3csc(-c4ccncc4)n3)n2)C1 | < 500 nM |
| O=C(Nc1cccc(OCCC2CCNCC2)n1)Nc1csc(Cl)n1 | < 500 nM |
| CC(C)(C)OC(=O)N1CCCCC1CNc1cccc(NC(=O)Nc2csc(-c3ccncc3)n2)n1 (centres undefined) | < 500 nM |
| Cn1cccc1C(=O)N1CCC(COc2cccc(NC(=O)Nc3csc(-c4ccncc4)n3)n2)C1 (centres undefined) | < 500 nM |
| O=C(Nc1cc(C(=O)N2CCCCC2)ccn1)Nc1csc(-c2ccccc2)n1 | < 500 nM |
| CC1CCCC(C)N1Cc1cccc(NC(=O)Nc2csc(-c3ccncc3)n2)n1 (centres undefined) | < 500 nM |
| CN1CC(COc2cccc(NC(=O)Nc3csc(-c4ccncc4)n3)n2)C1 | < 500 nM |
| CC(C)NCc1cccc(NC(=O)Nc2csc(-c3ccccc3)n2)n1 | < 500 nM |
| CC(C)(C)OC(=O)N1CCC(COc2cccc(NC(=O)Nc3csc(-c4ccncc4)n3)n2)C1 (centres undefined) | < 500 nM |
| CC1CCCN(Cc2cccc(NC(=O)Nc3csc(Br)n3)n2)C1 (centres undefined) | < 500 nM |
| O=C(Nc1cccc(OCC2CCNCC2)n1)Nc1csc(-c2ccncc2)n1 | < 500 nM |
| O=C(Nc1cccc(OCC2CCNCC2)n1)Nc1csc(-c2ccccc2)n1 | < 500 nM |
| O=C(Nc1cccc(OCC2CCNCC2)n1)Nc1csc(Cl)n1 | < 500 nM |
| CN1CC=C(c2cccc(NC(=O)Nc3csc(Br)n3)n2)CC1 | < 500 nM |
| CCN(CC)Cc1ccnc(NC(=O)Nc2csc(-c3ccncc3)n2)c1 | < 500 nM |

The next lines start with the values.

| IC50 | Compound |
| --- | --- |
| < 500 nM | O=C(Nc1cccc(Oc2ccc(CN3CCCC3)cc2)n1)Nc1csc(-c2ccccc2)n1 |
| < 500 nM | O=C(Nc1cc(C(=O)N2CCCCC2)ccn1)Nc1csc(-c2ccncc2)n1 |
| < 500 nM | O=C(Nc1cccc(OCC2CNC2)n1)Nc1csc(Br)n1 |
| < 500 nM | O=C(Nc1cccc(OCCC2CCNCC2)n1)Nc1csc(Br)n1 |
| < 500 nM | CC(C)(C)OC(=O)N1CC(COc2cccc(NC(=O)Nc3csc(-c4ccccc4)n3)n2)C1 |
| < 500 nM | CC(C)NCc1cccc(NC(=O)Nc2csc(-c3ncc(C(C)(C)C)o3)n2)n1 |
| < 500 nM | COc1cc(-c2nc(NC(=O)Nc3cccc(CN4CCCCC4)n3)cs2)ccn1 |
| < 500 nM | O=C(Nc1cccc(Oc2ccc(CN3CCCC3)cc2)n1)Nc1csc(Br)n1 |
| < 500 nM | CN1CCC(c2cccc(NC(=O)Nc3csc(-c4ccccc4)n3)n2)CC1 |
| < 500 nM | CCN1CCN(c2cccc(NC(=O)Nc3csc(-c4ccccc4)n3)n2)CC1 |
| < 500 nM | CC(C)(C)c1cnc(-c2nc(NC(=O)Nc3cccc(OCCC4CCNCC4)n3)cs2)o1 |
| < 500 nM | CC1CCCN(Cc2cccc(NC(=O)Nc3csc(-c4ccccc4)n3)n2)C1 (centres undefined) |
| < 500 nM | O=C(Nc1cccc(OCC2CCNCC2)n1)Nc1csc(Br)n1 |
| < 500 nM | Cc1cc(C(=O)N2CCC(COc3cccc(NC(=O)Nc4csc(-c5ccncc5)n4)n3)C2)n(C(C)(C)C)n1 (centres undefined) |
| < 500 nM | O=C(Nc1csc(-c2ccncc2)n1)Nc1ncccn1 |
| < 500 nM | CC(c1cccc(NC(=O)Nc2csc(-c3ccncc3)n2)n1)N1CCCCC1 (centres undefined) |
| < 500 nM | O=C(Nc1cccc(OCC2CNC2)n1)Nc1csc(-c2ccccc2)n1 |

| IC50 | Compound |
| --- | --- |
| < 500 nM | O=C(Nc1cccc(OCC2CNC2)n1)Nc1csc(Cl)n1 |
| < 500 nM | CN1CCC[C@@H]1COc1cccc(NC(=O)Nc2csc(-c3ccncc3)n2)n1 |
| < 500 nM | O=C(Nc1cccc(OCC2CCCO2)n1)Nc1csc(-c2ccncc2)n1 (centres undefined) |
| < 500 nM | O=C(Nc1cc(CN2CCCCC2)ccn1)Nc1csc(-c2ccccc2)n1 |
| < 500 nM | CN1CCC(COc2cccc(NC(=O)Nc3csc(-c4ccccc4)n3)n2)CC1 |
| < 500 nM | O=C(Nc1cccc(NCCCO)n1)Nc1csc(-c2ccncc2)n1 |
| < 500 nM | C[C@H]1CCCN(Cc2cccc(NC(=O)Nc3csc(-c4ccncc4)n3)n2)C1 |
| < 500 nM | O=C(Nc1cccc(OCC2CCNC2)n1)Nc1csc(-c2ccncc2)n1 (centres undefined) |
| < 500 nM | CN1CCC[C@H]1COc1cccc(NC(=O)Nc2csc(CS(=O)(=O)c3cccs3)n2)n1 |
| < 500 nM | CC1CCCN(Cc2cccc(NC(=O)Nc3csc(Cl)n3)n2)C1 (centres undefined) |
| < 500 nM | O=C(Nc1cccc(NCC2CCCCN2)n1)Nc1csc(-c2ccncc2)n1 (centres undefined) |
| < 500 nM | O=C(Nc1cccc(OCCC2CCNCC2)n1)Nc1csc(-c2cccs2)n1 |
| < 500 nM | O=C(Nc1cc(C(=O)N2CCCCC2)ccn1)Nc1csc(Br)n1 |
| < 500 nM | O=C(Nc1cccc(NCCCO)n1)Nc1csc(Br)n1 |
| < 500 nM | CN1CCC(COc2cccc(NC(=O)Nc3csc(-c4ccncc4)n3)n2)CC1 |
| < 500 nM | CC(C)NCc1cccc(NC(=O)Nc2csc(Cl)n2)n1 |
